Measurements published in PubChem BioAssay (NCI).
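Tested at 5 concentrations; 48 h exposure; 96-well plates; endpoints linearly interpolated, else capped at highest concentration. GI50 = concentration required for 50% inhibition of growth. TGI marks complete inhibition of growth.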

What was measured:
Test in all cases: inhibition of tumour cell growth, NCI panel, 48 h
786-0 renal = tested on: 786-0 renal
A498 renal = tested on: A498 renal
A549 NSCLC = tested on: A549 NSCLC
ACHN renal = tested on: ACHN renal
BT-549 breast = tested on: BT-549 breast
CAKI-1 renal = tested on: CAKI-1 renal
CCRF-CEM leukemia = tested on: CCRF-CEM leukemia
COLO 205 colon = tested on: COLO 205 colon
DU-145 prostate = tested on: DU-145 prostate
EKVX NSCLC = tested on: EKVX NSCLC
HCC-2998 colon = tested on: HCC-2998 colon
HCT-116 colon = tested on: HCT-116 colon
HCT-15 colon = tested on: HCT-15 colon
HL-60(TB) leukemia = tested on: HL-60(TB) leukemia
HOP-62 NSCLC = tested on: HOP-62 NSCLC
HOP-92 NSCLC = tested on: HOP-92 NSCLC
HS 578T breast = tested on: HS 578T breast
HT29 colon = tested on: HT29 colon
IGROV1 ovarian = tested on: IGROV1 ovarian
K-562 leukemia = tested on: K-562 leukemia
KM12 colon = tested on: KM12 colon
LOX IMVI melanoma = tested on: LOX IMVI melanoma
M14 melanoma = tested on: M14 melanoma
MALME-3M melanoma = tested on: MALME-3M melanoma
MCF7 breast = tested on: MCF7 breast
MDA-MB-231 breast = tested on: MDA-MB-231 breast
MDA-MB-435 = tested on: MDA-MB-435
MOLT-4 leukemia = tested on: MOLT-4 leukemia
NCI-H226 lung = tested on: NCI-H226 lung
NCI-H23 lung = tested on: NCI-H23 lung
NCI-H460 lung = tested on: NCI-H460 lung
NCI-H522 lung = tested on: NCI-H522 lung
NCI/ADR-RES ovarian = tested on: NCI/ADR-RES ovarian
OVCAR-3 ovarian = tested on: OVCAR-3 ovarian
OVCAR-4 ovarian = tested on: OVCAR-4 ovarian
OVCAR-5 ovarian = tested on: OVCAR-5 ovarian
OVCAR-8 ovarian = tested on: OVCAR-8 ovarian
PC-3 prostate = tested on: PC-3 prostate
RPMI-8226 leukemia = tested on: RPMI-8226 leukemia
RXF 393 renal = tested on: RXF 393 renal
SF-268 CNS = tested on: SF-268 CNS
SF-295 CNS = tested on: SF-295 CNS
SF-539 CNS = tested on: SF-539 CNS
SK-MEL-2 melanoma = tested on: SK-MEL-2 melanoma
SK-MEL-28 melanoma = tested on: SK-MEL-28 melanoma
SK-MEL-5 melanoma = tested on: SK-MEL-5 melanoma
SK-OV-3 ovarian = tested on: SK-OV-3 ovarian
SN12C renal = tested on: SN12C renal
SNB-19 CNS = tested on: SNB-19 CNS
SNB-75 CNS = tested on: SNB-75 CNS
SR leukemia = tested on: SR leukemia
SW-620 colon = tested on: SW-620 colon
T-47D breast = tested on: T-47D breast
TK-10 renal = tested on: TK-10 renal
U251 CNS = tested on: U251 CNS
UACC-257 melanoma = tested on: UACC-257 melanoma
UACC-62 melanoma = tested on: UACC-62 melanoma
UO-31 renal = tested on: UO-31 renal
MDA-N = tested on: MDA-N

O=S(=O)(Nc1ccccc1Cl)c1ccc(-c2cnc(C3CC3)o2)cc1
GI50 (786-0 renal): 0.809 µM | TGI (786-0 renal): > 85.1 µM | GI50 (A498 renal): 0.0873 µM | TGI (A498 renal): 0.608 µM | GI50 (A549 NSCLC): 0.867 µM | TGI (A549 NSCLC): 99.7 µM | GI50 (ACHN renal): 0.744 µM | TGI (ACHN renal): > 100 µM | GI50 (BT-549 breast): 2.12 µM | TGI (BT-549 breast): 69.3 µM | GI50 (CAKI-1 renal): 0.321 µM | TGI (CAKI-1 renal): 82 µM | GI50 (CCRF-CEM leukemia): 0.388 µM | TGI (CCRF-CEM leukemia): > 100 µM | GI50 (COLO 205 colon): 0.489 µM | TGI (COLO 205 colon): 5.58 µM | GI50 (DU-145 prostate): 0.94 µM | TGI (DU-145 prostate): > 100 µM | GI50 (EKVX NSCLC): 4.35 µM | TGI (EKVX NSCLC): > 89.1 µM | GI50 (HCC-2998 colon): 2.54 µM | TGI (HCC-2998 colon): 33.3 µM | GI50 (HCT-116 colon): 0.401 µM | TGI (HCT-116 colon): > 75.5 µM | GI50 (HCT-15 colon): 0.282 µM | TGI (HCT-15 colon): > 100 µM | GI50 (HL-60(TB) leukemia): 0.274 µM | TGI (HL-60(TB) leukemia): 0.886 µM | GI50 (HOP-62 NSCLC): 0.501 µM | TGI (HOP-62 NSCLC): > 100 µM | GI50 (HOP-92 NSCLC): 0.324 µM | TGI (HOP-92 NSCLC): 7.28 µM | GI50 (HS 578T breast): 0.346 µM | TGI (HS 578T breast): > 94.9 µM | GI50 (HT29 colon): 0.331 µM | TGI (HT29 colon): > 41.2 µM | GI50 (IGROV1 ovarian): 0.68 µM | TGI (IGROV1 ovarian): > 100 µM | GI50 (K-562 leukemia): 0.0845 µM | TGI (K-562 leukemia): > 100 µM | GI50 (KM12 colon): 0.393 µM | TGI (KM12 colon): 32.4 µM | GI50 (LOX IMVI melanoma): 0.79 µM | TGI (LOX IMVI melanoma): > 90.8 µM | GI50 (M14 melanoma): 0.279 µM | TGI (M14 melanoma): > 100 µM | GI50 (MALME-3M melanoma): 0.472 µM | TGI (MALME-3M melanoma): 44.3 µM | GI50 (MCF7 breast): 0.284 µM | TGI (MCF7 breast): > 100 µM | GI50 (MDA-MB-231 breast): 1.92 µM | TGI (MDA-MB-231 breast): 84.9 µM | GI50 (MDA-MB-435): 0.0552 µM | TGI (MDA-MB-435): 0.388 µM | GI50 (MOLT-4 leukemia): 0.71 µM | TGI (MOLT-4 leukemia): > 63.6 µM | GI50 (NCI-H226 lung): 4.84 µM | TGI (NCI-H226 lung): > 68.4 µM | GI50 (NCI-H23 lung): 1.78 µM | TGI (NCI-H23 lung): > 100 µM | GI50 (NCI-H460 lung): 0.397 µM | TGI (NCI-H460 lung): 15.6 µM | GI50 (NCI-H522 lung): 0.26 µM | TGI (NCI-H522 lung): 15.6 µM | GI50 (NCI/ADR-RES ovarian): 0.314 µM | TGI (NCI/ADR-RES ovarian): 65.9 µM | GI50 (OVCAR-3 ovarian): 0.303 µM | TGI (OVCAR-3 ovarian): 15.7 µM | GI50 (OVCAR-4 ovarian): 4.21 µM | TGI (OVCAR-4 ovarian): > 100 µM | GI50 (OVCAR-5 ovarian): 2.44 µM | TGI (OVCAR-5 ovarian): > 100 µM | GI50 (OVCAR-8 ovarian): 1.22 µM | TGI (OVCAR-8 ovarian): > 100 µM | GI50 (PC-3 prostate): 0.521 µM | TGI (PC-3 prostate): > 100 µM | GI50 (RPMI-8226 leukemia): 0.541 µM | TGI (RPMI-8226 leukemia): 22.7 µM | GI50 (RXF 393 renal): 0.266 µM | TGI (RXF 393 renal): 1.18 µM | GI50 (SF-268 CNS): 12.4 µM | TGI (SF-268 CNS): > 100 µM | GI50 (SF-295 CNS): 0.438 µM | TGI (SF-295 CNS): 15.3 µM | GI50 (SF-539 CNS): 0.332 µM | TGI (SF-539 CNS): 2.33 µM | GI50 (SK-MEL-2 melanoma): 0.64 µM | TGI (SK-MEL-2 melanoma): > 100 µM | GI50 (SK-MEL-28 melanoma): 3.34 µM | TGI (SK-MEL-28 melanoma): > 100 µM | GI50 (SK-MEL-5 melanoma): 0.453 µM | TGI (SK-MEL-5 melanoma): 15.9 µM | GI50 (SK-OV-3 ovarian): 1.23 µM | TGI (SK-OV-3 ovarian): > 67.7 µM | GI50 (SN12C renal): 0.797 µM | TGI (SN12C renal): > 100 µM | GI50 (SNB-19 CNS): 0.642 µM | TGI (SNB-19 CNS): > 100 µM | GI50 (SNB-75 CNS): 0.139 µM | TGI (SNB-75 CNS): 0.599 µM | GI50 (SR leukemia): 0.0684 µM | TGI (SR leukemia): > 55.7 µM | GI50 (SW-620 colon): 0.312 µM | TGI (SW-620 colon): > 100 µM | GI50 (T-47D breast): 0.464 µM | TGI (T-47D breast): > 54.7 µM | GI50 (TK-10 renal): 11.8 µM | TGI (TK-10 renal): > 100 µM | GI50 (U251 CNS): 0.583 µM | TGI (U251 CNS): > 100 µM | GI50 (UACC-257 melanoma): 19.2 µM | TGI (UACC-257 melanoma): 75 µM | GI50 (UACC-62 melanoma): 0.402 µM | TGI (UACC-62 melanoma): 47.6 µM | GI50 (UO-31 renal): 0.832 µM | TGI (UO-31 renal): > 77.1 µM

O=C(/C=C/c1ccc(O)c(O)c1)OCCCc1ccccc1
TGI (786-0 renal): 18.1 µM | TGI (A498 renal): 30.4 µM | TGI (A549 NSCLC): 31.3 µM | TGI (ACHN renal): 21.2 µM | TGI (CAKI-1 renal): 47 µM | TGI (COLO 205 colon): 27.1 µM | TGI (DU-145 prostate): 31.6 µM | TGI (EKVX NSCLC): 63.8 µM | TGI (HCC-2998 colon): 39.5 µM | TGI (HCT-116 colon): 22.4 µM | TGI (HCT-15 colon): 26.4 µM | TGI (HL-60(TB) leukemia): 4.84 µM | TGI (HOP-62 NSCLC): 26.6 µM | TGI (HOP-92 NSCLC): 30.6 µM | TGI (HS 578T breast): 74.5 µM | TGI (HT29 colon): 48.4 µM | TGI (IGROV1 ovarian): 12.1 µM | TGI (K-562 leukemia): 58.9 µM | TGI (LOX IMVI melanoma): 27.1 µM | TGI (M14 melanoma): 22.6 µM | TGI (MALME-3M melanoma): 25.4 µM | TGI (MCF7 breast): 26.8 µM | TGI (MDA-MB-231 breast): 25.2 µM | TGI (MDA-MB-435): 24.6 µM | TGI (MDA-N): 31.3 µM | TGI (MOLT-4 leukemia): 36.4 µM | TGI (NCI-H226 lung): 34.6 µM | TGI (NCI-H23 lung): 35.3 µM | TGI (NCI-H460 lung): 55.6 µM | TGI (NCI-H522 lung): 5.59 µM | TGI (NCI/ADR-RES ovarian): 28.6 µM | TGI (OVCAR-3 ovarian): 6.6 µM | TGI (OVCAR-4 ovarian): 20.7 µM | TGI (OVCAR-5 ovarian): 37.3 µM | TGI (PC-3 prostate): 24.4 µM | TGI (RPMI-8226 leukemia): 49.4 µM | TGI (RXF 393 renal): 25.5 µM | TGI (SF-268 CNS): 24 µM | TGI (SF-295 CNS): 38.9 µM | TGI (SF-539 CNS): 5.81 µM | TGI (SK-MEL-2 melanoma): 46.4 µM | TGI (SK-MEL-28 melanoma): 31.2 µM | TGI (SK-MEL-5 melanoma): 26.3 µM | TGI (SK-OV-3 ovarian): 58.9 µM | TGI (SN12C renal): 25.3 µM | TGI (SNB-19 CNS): 33.6 µM | TGI (SR leukemia): 22.8 µM | TGI (SW-620 colon): 32 µM | TGI (T-47D breast): 45.9 µM | TGI (U251 CNS): 23.4 µM | TGI (UACC-257 melanoma): 63.4 µM | TGI (UACC-62 melanoma): 23.6 µM | TGI (UO-31 renal): 14.8 µM
